Consider 15 compounds from patent US10259810B2, “N-sulfonylated pyrazolo[3,4-b]pyridin-6-carboxamides and method of use” (AbbVie S.à.r.l., priority 2015, dated 2019).

Like-named read-outs stand apart in the source and are kept apart here.

Common to all, as to format: cell-based
Experiment [1] has as its target T1, ΔF508-CFTR (Homo sapiens, UniProt P13569, DEL508-508).
T1 construct: host or cells: CFBE41o-, doxycycline-inducible
Description: CFTR cell surface levels using HRP-tagged ΔF508-CFTR expressing CFBE cells, in the presence of a co-corrector. The conditions noted are these: HRP-tagged ΔF508-CFTR CFBE cells, in the presence of 3 μM co-corrector; for EC50: read-out: EC50. The gist of the method:
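Chemiluminescent read-out of surface HRP (15 min, dark) after PBS washes. Activity is normalized as 100×(sample−DMSO)/(3 μM co-corrector alone−DMSO).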

Experiment [2] addresses T1, ΔF508-CFTR. Kind of experiment: CFTR cell surface levels using HRP-tagged ΔF508-CFTR expressing CFBE cells, intrinsic corrector capacity. Details: % Activation: concentration or dose not given beside the values. The note with it: HRP-tagged ΔF508-CFTR expressing CFBE41o- cells, compound alone (intrinsic corrector capacity), 20 hours at 33° C.; for EC50: read-out: EC50. The gist of the method: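 Surface ΔF508-CFTR was measured as HRP chemiluminescence from an extracellular-loop-4 tag, expressed as percent activity between DMSO and a […] corrector control.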

Experiment [3] concerns the target T2, CFTR ΔF508 (Homo sapiens, UniProt P13569, DEL508-508).
T2 construct: bronchial epithelial cells isolated from CF patients homozygous for the CFTR ΔF508 mutation; McGill University; Asterand; University of North Carolina hAEC-CF; host or cells: primary human bronchial epithelial cells from CF patients homozygous for ΔF508, differentiated at air-liquid interface
Description: Chronic TECC assay, primary bronchial epithelial cells of CF patients homozygous for CFTR ΔF508 (corrector, co-corrector and potentiator). The note with it: for % Activity at 1 μM (Ieq*) / % Activity at 1 μM (AUC**): test compound at 1 μM; for % Activity at 3 μM (AUC**): test compound at 3 μM. The procedure:
Primary Bronchial Epithelial Cells Protocol
The TECC (Tranepithelial Clamp Circuit, EP-design) assay measures the functionality of the cystic fibrosis Transmembrane Conductance regulator (CFTR) by measuring the short circuit current (Isc) generated over the basolateral and apical membrane of lung epithelial cells. In TECC the transepithelial potential PD and transepithelial resistance (Rt) are measured in an open circuit and transformed to Ieq using Ohm's law. 24 Wells can be measured simultaneously allowing a higher throughput compared to Ussing chambers.
For this purpose, bronchial epithelial cells isolated from CF patients homozygous for the CFTR ΔF508 mutation (hAEC-CF, Epithelix, Geneva, Switzerland; McGill University, Montreal, Qc; Asterand, Detroit, Mich.; University of North Carolina, Chapel Hill, N.C.) are plated on type IV collagen-coated Transwell® supports (Costar).
For electrophysiological recording of the “chronic” experiments, the human airway epithelia are mounted in the TECC heating plate for electrophysiological measurement and kept at 37° C. The epithelia are bathed in a NaCl-Ringer solution (120 mM NaCl, 25 mM NaHCO3, 1.2 mM CaCl2, 1.2 mM MgCl2, 0.8 mM KH2PO4, 0.8 mM K2HPO4, pH 7.4, 5 mM glucose) on both the basolateral and apical sides. Test compounds (corrector, co-corrector, 4-[(2R,4R)-4-({[1-(2,2-difluoro-1,3-benzodioxol-5-yl)cyclopropyl]carbonyl}amino)-7-(difluoromethoxy)-3,4-dihydro-2H-chromen-2-yl]benzoic acid, and potentiator, N-(3-carbamoyl-5,5,7,7-tetramethyl-4,7-dihydro-5H-thieno[2,3-c]pyran-2-yl)-1H-pyrazole-5-carboxamide), are re-added to the recording solution prior to measurement. […] Apical amiloride is used to inhibit the endogenous ENaC currents while forskolin is applied on both apical and basolateral side to stimulate CFTR. Measurements are done during a 20 minute timeframe with recordings every 2 minutes. The increase in Ieq is used as a measure for the increased CFTR activity, EC50 values can be generated by measuring impact of different concentrations of compound on Ieq on primary cells, for this purpose each transwell is treated with a different compound concentration. […] Raw data were normalized to percentage activity values using the equation: 100×(Sample−Negative control)/(Positive control−Negative Control).

Setting [4] is: chronic TECC, Ieq = calculations based on the maximum current, read-out: EC50 (nM) (Ieq*).
Where [5] appears, read: chronic TECC, Ieq = calculations based on the maximum current.
The mark [6] stands for this setting: chronic TECC, AUC = full area under the curve upon forskolin stimulation, read-out: EC50 (nM) (AUC**).
The mark [7] stands for this setting: chronic TECC, AUC = full area under the curve upon forskolin stimulation.

Broadly, the EC50 is the concentration at which the effect is half-maximal.

T1 sequence (P13569 with tags, fused parts or gaps DEL508-508): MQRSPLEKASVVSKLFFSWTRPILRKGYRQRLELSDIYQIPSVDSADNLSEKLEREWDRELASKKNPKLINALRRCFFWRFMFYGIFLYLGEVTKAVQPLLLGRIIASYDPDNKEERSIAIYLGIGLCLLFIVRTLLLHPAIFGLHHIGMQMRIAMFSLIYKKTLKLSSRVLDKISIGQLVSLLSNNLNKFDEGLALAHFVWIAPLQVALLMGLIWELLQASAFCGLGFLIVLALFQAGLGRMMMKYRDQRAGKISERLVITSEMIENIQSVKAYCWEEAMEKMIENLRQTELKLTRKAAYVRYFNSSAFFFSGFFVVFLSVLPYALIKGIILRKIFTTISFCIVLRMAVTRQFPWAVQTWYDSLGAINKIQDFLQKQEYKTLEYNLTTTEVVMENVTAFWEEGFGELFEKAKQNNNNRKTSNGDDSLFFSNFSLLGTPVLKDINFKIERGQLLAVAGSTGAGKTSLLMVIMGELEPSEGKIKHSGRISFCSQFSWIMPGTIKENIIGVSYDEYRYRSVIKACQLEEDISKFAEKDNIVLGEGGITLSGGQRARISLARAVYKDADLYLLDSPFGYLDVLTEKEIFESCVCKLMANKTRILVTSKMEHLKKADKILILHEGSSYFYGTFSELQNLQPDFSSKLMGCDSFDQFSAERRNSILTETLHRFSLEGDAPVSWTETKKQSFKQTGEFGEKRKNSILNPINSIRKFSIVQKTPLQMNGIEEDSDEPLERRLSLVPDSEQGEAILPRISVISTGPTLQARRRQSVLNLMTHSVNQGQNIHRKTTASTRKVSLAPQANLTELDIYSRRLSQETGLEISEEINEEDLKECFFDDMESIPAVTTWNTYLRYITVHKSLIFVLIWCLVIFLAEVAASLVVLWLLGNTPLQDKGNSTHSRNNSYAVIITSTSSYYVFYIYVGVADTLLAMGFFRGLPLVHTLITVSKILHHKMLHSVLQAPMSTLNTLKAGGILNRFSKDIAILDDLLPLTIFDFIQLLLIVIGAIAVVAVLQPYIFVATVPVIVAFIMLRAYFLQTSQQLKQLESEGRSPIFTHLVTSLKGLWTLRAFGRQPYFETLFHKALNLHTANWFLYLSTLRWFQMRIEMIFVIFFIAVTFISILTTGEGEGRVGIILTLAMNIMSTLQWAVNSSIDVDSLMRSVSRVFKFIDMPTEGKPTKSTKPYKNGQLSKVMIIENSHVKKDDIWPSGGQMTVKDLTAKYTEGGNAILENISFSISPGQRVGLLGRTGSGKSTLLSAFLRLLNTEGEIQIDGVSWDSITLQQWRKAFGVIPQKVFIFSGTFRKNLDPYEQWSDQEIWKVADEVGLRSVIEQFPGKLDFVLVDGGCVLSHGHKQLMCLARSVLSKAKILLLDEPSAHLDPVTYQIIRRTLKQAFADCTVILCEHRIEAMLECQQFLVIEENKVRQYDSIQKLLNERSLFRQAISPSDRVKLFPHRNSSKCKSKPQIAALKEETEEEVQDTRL
T2 sequence (P13569 with tags, fused parts or gaps DEL508-508): as above

For the compound `CCS(=O)(=O)NC(=O)c1cc(-c2cnc(N(C)C)nc2)c2c(C(C)C)nn(-c3cccc(N4CCOCC4)c3)c2n1` [Compound 30, 4-[2-(dimethylamino)pyrimidin-5-yl]-N-(ethanesulfonyl)-1-[3-(morpholin-4-yl)phenyl]-3-(propan-2-yl)-1H-pyrazolo[3,4-b]pyridine-6-carboxamide], the “% Activation” value stood at 580.97% in experiment [1] and 369.93% in experiment [2]. Besides, the EC50 in experiment [1] was 215 nM; in experiment [2] it was 436 nM; in experiment [3] (setting [4]), under 30 nM. Also, the “% Activity at 1 μM (Ieq*)” value in experiment [3] (setting [5]) was 450%.
`CC(C)c1nn(-c2ccccc2)c2nc(C(=O)NS(C)(=O)=O)cc(-c3ccc(N4CCOCC4)nc3)c12` [Compound 34, N-(methanesulfonyl)-4-[6-(morpholin-4-yl)pyridin-3-yl]-1-phenyl-3-(propan-2-yl)-1H-pyrazolo[3,4-b]pyridine-6-carboxamide]: the “% Activation” value in experiment [1] amounted to 462.55%; in experiment [2], 292.95%. Also, the figures for the EC50 in experiment [1], in experiment [2] and in experiment [3] (setting [4]) were 356 nM, 611 nM and under 30 nM, respectively. For the same compound, the “% Activity at 1 μM (Ieq*)” value in experiment [3] (setting [5]) is 270%.
With `COCCN(C)c1ccc(-c2cc(C(=O)NS(C)(=O)=O)nc3c2c(C2CCC2)nn3-c2ccccc2)cn1` [Compound 63, 3-cyclobutyl-N-(methanesulfonyl)-4-{6-[(2-methoxyethyl)(methyl)amino]pyridin-3-yl}-1-phenyl-1H-pyrazolo[3,4-b]pyridine-6-carboxamide], the concentration for a half-maximal effect (EC50) in experiment [3] (setting [4]) was 40 nM. For the same compound, the “% Activity at 1 μM (Ieq*)” value in experiment [3] (setting [5]) is recorded as 325%.
As for `CN(c1ccc(-c2cc(C(=O)NS(C)(=O)=O)nc3c2c(C2CCC2)nn3-c2ccccc2)cn1)C1CCOCC1` [Compound 74, 3-cyclobutyl-N-(methanesulfonyl)-4-{6-[methyl(oxan-4-yl)amino]pyridin-3-yl}-1-phenyl-1H-pyrazolo[3,4-b]pyridine-6-carboxamide], the results for the “% Activation” value in experiment [1] and in experiment [2] were 424.82% and 253.38%, respectively. Further, the results for the concentration for a half-maximal effect (EC50) in experiment [1], in experiment [2] and in experiment [3] (setting [4]) were 357 nM, 549 nM and under 30 nM, respectively. The “% Activity at 1 μM (Ieq*)” value in experiment [3] (setting [5]) is 240%.
As to `COCCN(C)c1ccc(-c2cc(C(=O)NS(C)(=O)=O)nc3c2c(C2CCC2)nn3-c2ccccc2)cc1` [Compound 75, 3-cyclobutyl-N-(methanesulfonyl)-4-{4-[(2-methoxyethyl)(methyl)amino]phenyl}-1-phenyl-1H-pyrazolo[3,4-b]pyridine-6-carboxamide], the EC50 in experiment [3] (setting [4]) was 30 nM. Further, in experiment [3] (setting [5]), the “% Activity at 1 μM (Ieq*)” value is given as 316%.
On to `CC(C)c1nn(C2CCCCC2)c2nc(C(=O)NS(C)(=O)=O)cc(-c3ccc(N4CCC(C#N)CC4)cc3)c12` [Compound 80, 4-[4-(4-cyanopiperidin-1-yl)phenyl]-1-cyclohexyl-N-(methanesulfonyl)-3-(propan-2-yl)-1H-pyrazolo[3,4-b]pyridine-6-carboxamide], for which the entries for the “% Activation” value in experiment [1] and in experiment [2] were 457.5% and 258.38%, respectively. Further, the values for the EC50 in experiment [1], in experiment [2] and in experiment [3] (setting [4]) were 389 nM, 436 nM and 19.3 nM, respectively. Besides, the “% Activity at 1 μM (Ieq*)” value in experiment [3] (setting [5]) is 250%.
Take `CC(C)c1nn(-c2cccc(N3CCOCC3)c2)c2nc(C(=O)NS(C)(=O)=O)cc(-c3ccc(N4CCC(C#N)CC4)nc3)c12` [Compound 85, 4-[6-(4-cyanopiperidin-1-yl)pyridin-3-yl]-N-(methanesulfonyl)-1-[3-(morpholin-4-yl)phenyl]-3-(propan-2-yl)-1H-pyrazolo[3,4-b]pyridine-6-carboxamide]: the “% Activation” value in experiment [1] is on record as 570.16%; in experiment [2], 426.04%. The EC50 was 232 nM in experiment [1], 421 nM in experiment [2] and over 1000 nM in experiment [3] (setting [4]). For the same compound, in experiment [3] (setting [5]), the “% Activity at 1 μM (Ieq*)” value is 120%.
For the compound `COC1CCN(c2cc(C(=O)NS(C)(=O)=O)nc3c2c(C2CCC2)nn3-c2ccccc2)CC1` [Compound 142, 3-cyclobutyl-N-(methanesulfonyl)-4-(4-methoxypiperidin-1-yl)-1-phenyl-1H-pyrazolo[3,4-b]pyridine-6-carboxamide], the 50% effective concentration (EC50) in experiment [3] (setting [6]) was under 300 nM. The “% Activity at 1 μM (AUC**)” value in experiment [3] (setting [7]) was found to be 250%.
Regarding `CS(=O)(=O)NC(=O)c1cc(N2CCC(N3CCOCC3)CC2)c2c(C3CCC3)nn(-c3ccccc3)c2n1` [Compound 328, 3-cyclobutyl-N-(methanesulfonyl)-4-[4-(morpholin-4-yl)piperidin-1-yl]-1-phenyl-1H-pyrazolo[3,4-b]pyridine-6-carboxamide], the concentration giving a half-maximal response (EC50) in experiment [3] was 96 nM.
As to `CN(C)S(=O)(=O)NC(=O)c1cc(OCC2CCOCC2)c2c(C3CCC3)nn(-c3ccccc3)c2n1` [Compound 334, 3-cyclobutyl-N-(dimethylsulfamoyl)-4-[(oxan-4-yl)methoxy]-1-phenyl-1H-pyrazolo[3,4-b]pyridine-6-carboxamide], in experiment [2], the “% Activation” value is 121.75% and the EC50 amounted to 167 nM. The “% Activity at 3 μM (AUC**)” value in experiment [3] (setting [7]) was found to be 345.13%.
Take `COC1CCN(C2CCN(c3cc(C(=O)NS(=O)(=O)N(C)C)nc4c3c(C3CCC3)nn4-c3ccc(F)cc3)CC2)CC1` [Compound 381, 3-cyclobutyl-N-(dimethylsulfamoyl)-1-(4-fluorophenyl)-4-(4-methoxy[1,4'-bipiperidin]-1'-yl)-1H-pyrazolo[3,4-b]pyridine-6-carboxamide]: the concentration giving a half-maximal response (EC50) in experiment [3] (setting [6]) was determined as 4100 nM. In addition, the “% Activity at 3 μM (AUC**)” value in experiment [3] (setting [7]) is 441%.
For `CN(C)S(=O)(=O)NC(=O)c1cc(N2CCC(N3CCOCC3)CC2)c2c(C3CCC3)nn(-c3ccc(F)cc3)c2n1` [Compound 408, 3-cyclobutyl-N-(dimethylsulfamoyl)-1-(4-fluorophenyl)-4-[4-(morpholin-4-yl)piperidin-1-yl]-1H-pyrazolo[3,4-b]pyridine-6-carboxamide], the EC50 in experiment [3] (setting [6]) worked out at 21 nM. For the same compound, the “% Activity at 1 μM (AUC**)” value in experiment [3] (setting [7]) stood at 430%.
In the case of `CS(=O)(=O)NC(=O)c1cc(N2CCC(N3CCOCC3)CC2)c2c(C3CCC3)nn(-c3ccc(F)cc3)c2n1` [Compound 421, 3-cyclobutyl-1-(4-fluorophenyl)-N-(methanesulfonyl)-4-[4-(morpholin-4-yl)piperidin-1-yl]-1H-pyrazolo[3,4-b]pyridine-6-carboxamide], in experiment [3] (setting [6]), the EC50 was 45.6 nM. For the same compound, in experiment [3] (setting [7]), the “% Activity at 1 μM (AUC**)” value was found to be 193.3333%.
Consider `COCCN1CCN(c2ccc(-c3cc(C(=O)NS(=O)(=O)N(C)C)nc4c3c(C3CCC3)nn4C3CCCCC3)cn2)CC1` [Compound 552, 3-cyclobutyl-1-cyclohexyl-N-(dimethylsulfamoyl)-4-{6-[4-(2-methoxyethyl)piperazin-1-yl]pyridin-3-yl}-1H-pyrazolo[3,4-b]pyridine-6-carboxamide], for which, in experiment [1], the “% Activation” value came out at 364.2% and the EC50 was determined as 130 nM. Besides, in experiment [3] (setting [7]), the “% Activity at 1 μM (AUC**)” value is listed as 235.2857%.
On the same counts, the results for `CC(C)Oc1nn(C2CCCCC2)c2nc(C(=O)NS(=O)(=O)N(C)C)cc(-c3ccc(N4CCN(C5CC5)CC4)cc3)c12` [Compound 559, 1-cyclohexyl-4-[4-(4-cyclopropylpiperazin-1-yl)phenyl]-N-(dimethylsulfamoyl)-3-[(propan-2-yl)oxy]-1H-pyrazolo[3,4-b]pyridine-6-carboxamide] are 291.03%, 154 nM and 231.6378%.
